In patent publication US9066961B2, “Medicament for LCT poisoning” (JOHANNES GUTENBERG-UN[…], priority 2006, dated 2015):

How the values were obtained:
TcdB10463 [1] = biological target: T1, TcdB10463 (Clostridioides difficile, UniProt P18177); test: In vitro cleavage assay of TcdB10463 after pre-treatment with protease inhibitor EPNP; format: biochemical, Clostridium difficile
T1 construct: the TcdB10463, purified from culture supernate of C. difficile, used in the experiments; purchased tgcBIOMICS, Mainz, Germany; host or cells: Clostridium difficile VPI10463 culture supernatant
Protocol: TcdB10463 was purified as described in Example 1 (D) by means of affinity chromatography with the use of the monoclonal antibody 2CV and then pre-treated either (i) with the protease inhibitor EPNP (10 mM 1,2-epoxy-3-(p-nitrophenoxy)-propane) or (ii)—as control—with buffer (50 mM HEPES, 1M NaCl, 1 mM EDTA, pH 8.0) for 60 minutes at room temperature.
Then an in vitro cleavage assay analogous to Example 1 (A) was carried out. The test batches comprised respectively a volume of 10 μl, and contained respectively 50-100 ng unmarked TcdB10463, 100 μM IP6 and 10 mM tris-HCl pH 8.5. Following the incubation (1 h at room temperature), these test batches were subjected to a SDS-PAGE (10%) and the toxins and toxin fragments were then made visible by means of zinc stain.

TcdB10463 [2] = biological target: T1, TcdB10463; format: biochemical, Clostridium difficile
TcdB = TcdB (Clostridioides difficile, UniProt P18177); conditions: for Start of cell rounding after: CHO cells, TcdB pre-treated with polyclonal antiserum (1:100) 1 h at room temperature; for Neutralising effect of the polyclonal antiserum in the CHO test: antiserum of rabbits immunised with the preparation, dilution 1:100
Protocol: The CHO test was carried out as follows: In a 96 well microtiter plate, CHO cells (=Chinese hamster ovarial cells) were disseminated (5000 cells/well) and incubated for 16 hours under standard conditions (5% CO2, DMEM F12 supplemented with […] L-glutamins, 5% FCS). The toxins were then introduced to the cells after gradual dilution in growth medium. Dilution stages between 10° and 10^−8 were tested. The cells were incubated for 3 hours under standard conditions. Then the proportion of rounded cells was determined microscopically, by several representative sections of the well being photographed and the elongated and the rounded cells being counted. (See also Moos et al., Meth Enzymol. 2000, 325: 114-125. Reference is made here expressly to the content of this publication).
In order to check the neutralising effect of the polyclonal antiserums, firstly TcdB was pre-treated with polyclonal antiserum (dilution stage 1:100) and incubated for 1 h at room temperature. Then the neutralising effect of the antiserums was checked as described in Example 2 with the aid of the CHO test. The measurement for the neutalising effect of the serums was how long the cells were protected from the cytotoxic effect of the TcdB.

Chain of TcdB (P18177 whole entry): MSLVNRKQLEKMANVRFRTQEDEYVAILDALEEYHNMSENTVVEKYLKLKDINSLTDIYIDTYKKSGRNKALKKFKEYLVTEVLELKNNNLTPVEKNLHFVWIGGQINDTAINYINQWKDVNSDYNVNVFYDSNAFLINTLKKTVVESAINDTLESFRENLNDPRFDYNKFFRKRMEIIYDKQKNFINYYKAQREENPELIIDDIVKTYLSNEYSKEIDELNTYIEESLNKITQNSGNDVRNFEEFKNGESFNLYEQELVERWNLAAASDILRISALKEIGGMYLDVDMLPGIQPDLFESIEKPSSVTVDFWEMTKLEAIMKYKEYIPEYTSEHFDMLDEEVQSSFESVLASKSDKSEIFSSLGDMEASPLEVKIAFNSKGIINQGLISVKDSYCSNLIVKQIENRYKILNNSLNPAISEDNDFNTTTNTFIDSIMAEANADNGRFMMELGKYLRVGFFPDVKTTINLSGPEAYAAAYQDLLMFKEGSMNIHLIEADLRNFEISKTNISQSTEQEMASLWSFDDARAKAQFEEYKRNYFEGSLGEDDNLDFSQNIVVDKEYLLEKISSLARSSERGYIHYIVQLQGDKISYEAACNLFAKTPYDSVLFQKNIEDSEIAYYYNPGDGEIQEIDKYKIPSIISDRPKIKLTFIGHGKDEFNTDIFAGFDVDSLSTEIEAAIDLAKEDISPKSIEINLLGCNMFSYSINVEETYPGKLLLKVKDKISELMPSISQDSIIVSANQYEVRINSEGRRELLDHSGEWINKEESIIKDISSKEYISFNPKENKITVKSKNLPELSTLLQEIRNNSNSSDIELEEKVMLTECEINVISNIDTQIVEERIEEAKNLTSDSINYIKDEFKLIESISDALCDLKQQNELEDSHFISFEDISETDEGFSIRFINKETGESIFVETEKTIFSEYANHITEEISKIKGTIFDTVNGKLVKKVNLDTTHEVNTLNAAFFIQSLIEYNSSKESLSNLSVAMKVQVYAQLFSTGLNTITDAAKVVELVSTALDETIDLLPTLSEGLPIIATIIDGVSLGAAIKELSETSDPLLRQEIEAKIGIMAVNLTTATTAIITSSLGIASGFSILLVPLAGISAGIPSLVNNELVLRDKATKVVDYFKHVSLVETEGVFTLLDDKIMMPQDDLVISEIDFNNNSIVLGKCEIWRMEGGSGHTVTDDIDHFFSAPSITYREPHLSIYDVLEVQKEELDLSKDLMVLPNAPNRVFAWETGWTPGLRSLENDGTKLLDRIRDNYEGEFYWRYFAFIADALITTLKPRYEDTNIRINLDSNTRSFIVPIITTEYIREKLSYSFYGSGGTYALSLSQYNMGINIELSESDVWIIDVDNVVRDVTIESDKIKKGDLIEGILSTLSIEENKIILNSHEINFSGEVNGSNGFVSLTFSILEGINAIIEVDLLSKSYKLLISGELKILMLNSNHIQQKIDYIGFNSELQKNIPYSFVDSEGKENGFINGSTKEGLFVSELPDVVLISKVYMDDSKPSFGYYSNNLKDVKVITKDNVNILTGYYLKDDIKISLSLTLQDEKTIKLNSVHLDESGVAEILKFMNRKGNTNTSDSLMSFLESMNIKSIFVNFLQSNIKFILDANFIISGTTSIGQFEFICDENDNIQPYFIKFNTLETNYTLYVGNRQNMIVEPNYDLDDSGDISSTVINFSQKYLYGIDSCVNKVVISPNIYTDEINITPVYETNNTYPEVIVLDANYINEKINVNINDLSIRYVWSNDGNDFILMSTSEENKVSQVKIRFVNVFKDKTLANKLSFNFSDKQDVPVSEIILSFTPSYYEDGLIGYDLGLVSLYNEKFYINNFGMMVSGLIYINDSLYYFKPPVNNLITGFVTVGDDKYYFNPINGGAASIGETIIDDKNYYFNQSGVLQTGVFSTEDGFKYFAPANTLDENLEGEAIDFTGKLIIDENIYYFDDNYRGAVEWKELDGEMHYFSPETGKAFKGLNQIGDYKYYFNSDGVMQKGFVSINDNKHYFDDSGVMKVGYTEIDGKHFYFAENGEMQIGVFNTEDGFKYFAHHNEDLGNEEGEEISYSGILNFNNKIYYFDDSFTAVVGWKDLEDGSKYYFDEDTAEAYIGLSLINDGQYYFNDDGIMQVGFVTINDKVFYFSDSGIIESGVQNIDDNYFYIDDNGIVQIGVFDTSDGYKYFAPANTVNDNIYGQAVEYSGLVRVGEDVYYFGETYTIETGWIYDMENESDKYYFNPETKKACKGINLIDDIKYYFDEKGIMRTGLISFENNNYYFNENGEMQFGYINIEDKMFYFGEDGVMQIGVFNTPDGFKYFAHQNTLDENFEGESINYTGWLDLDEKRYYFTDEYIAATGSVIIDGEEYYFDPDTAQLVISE
T1 sequence (P18177 whole entry): as above

## O=[N+]([O-])c1ccc(OCC2CO2)cc1 (centres unmarked) [EPNP, 1,2-epoxy-3-(p-nitrophenoxy)-propane]
TcdB10463 [1]; TcdB10463 pre-treated with EPNP, after incubation with IP6 (FIG. 2, Line 2)
  63 kD band in SDS-PAGE: only weakly formed
TcdB10463 [1]; pre-treatment with 10 mM EPNP 60 minutes, then 100 μM IP6 1 h at room temperature
  Proteolytic activity (protease activity) of TcdB10463: almost completely inhibited

## O=P(O)(O)O[C@H]1[C@H](OP(=O)(O)O)[C@@H](OP(=O)(O)O)[C@H](OP(=O)(O)O)[C@@H](OP(=O)(O)O)[C@H]1OP(=O)(O)O [IP 1, 2, 3, 4, 5, 6, inositol hexaphosphate]
TcdB10463 [2]
  Cleavage activity (initiator activity) amongst the tested inositol phosphates: strongest cleavage activity
  Cleavage of the holotoxin into 63 kDa and 207 kDa fragments: complete cleavage

B1: Preparation D: TcdB fragment AS1508-1601 (part of the inosine-binding motif) (protein, UniProt P18177 1508-1601, looked up, fragment)
chain: YYSNNLKDVKVITKDNVNILTGYYLKDDIKISLSLTLQDEKTIKLNSVHLDESGVAEILKFMNRKGNTNTSDSLMSFLESMNIKSIFVNFLQSN
TcdB
  Start of cell rounding after: 9 to 12 h
  Neutralising effect of the polyclonal antiserum in the CHO test: smaller neutralising effect

B2: Preparation C: TcdB fragment AS1601-1716 (DSG motif) (protein, UniProt P18177 1601-1716, looked up, fragment)
chain: NIKFILDANFIISGTTSIGQFEFICDENDNIQPYFIKFNTLETNYTLYVGNRQNMIVEPNYDLDDSGDISSTVINFSQKYLYGIDSCVNKVVISPNIYTDEINITPVYETNNTYPE
TcdB
  Start of cell rounding after: 12 to 15 h
  Neutralising effect of the polyclonal antiserum in the CHO test: smaller neutralising effect
